Measurements as given in US20160038526A1, “TREATMENT OF PROSTATE CANCER” (THOMAS JEFFERSON UNIVERSITY, priority 2012, published 2016).
Entries after “also recorded” stand apart in the source; their conditions may differ.

How the values were obtained:
Type in all cases: cell-based
[1] = system: Stat5a/b; assay: Electrophoresis mobility shift assay (EMSA) of Stat5a/b binding to DNA, nuclear extracts of transfected COS-7 cells; conditions: 2 hours pretreatment, 10 nmol/L Prl 30 minutes
Protocol: COS-7 cells were transfected with plasmids expressing Stat5a (pStat5a) and PrlR (pPrlR) using FuGENE6. After 24 hours, the cells were starved in serum-free medium for 16 hours and then pretreated with N6BAP or the control compound C5 for 2 hours and the stimulated with 10 nmol/L Prl for 30 minutes. Nuclear extracts were prepared and a gel EMSA was performed as previously described (Ahonen et al., Endocrinology 2002, 143:228-238; Nevalainen et al., Mol Endocrinol 2002, 16:1108-1124). Double stranded Stat5a/b-binding oligonucleotide probe (upper strand sequence: 5′-[…]-3′) (Boucheron et al., J Biol Chem (1998), 273:33936-33941) were end-labeled with 50 μCi of γ-^32P-ATP (5000 ci/mMol) and incubated (1 ng per reaction) with 10 μl of nuclear extracts in the final volume of 20 μl of the binding mixture (50 mM TrisHCl, pH 7.4, 25 mM MgCl2, 500 mM KCl, 5 mM DTT, 50% glycerol) and 1 μl of 1 mg/ml Poly d[(I:C)]. For a supershift control, the samples were preincubated with anti-Stat5a or anti-Stat5b antibody (Millipore) or NRS as indicated. Polyacrylamide gels (5%) containing 5% glycerol and 0.25×Tris-borate/EDTA were pre-run in 0.25×Tris-borate/EDTA buffer at 4-10° C. for 2-4 h at 300V. The gels were run at room temperature for 2.33 hours at 200 V, dried and exposed to x-ray films (X-Omat, Eastman Kodak Co.). […]

[2] = system: human clinical prostate cancer explants; assay: Clinical prostate cancers ex vivo in explant organ cultures: viability of epithelium; conditions: eight patients, 7 days, N6BAP 5, 10, 25, 50 and 100 μM
Excerpt: For organ cultures, prostate cancer specimens were obtained during surgery from eight patients with localized or locally advanced prostate cancer undergoing radical prostatectomy and bilateral iliac lymphadenectomy. The specimens are identified in Table 1.
The specimens comprised de-identified excess tissue obtained after the completion of pathology diagnosis. A zero-sample prior to organ culture was formalin-fixed for each individual prostate cancer for the analysis of the nuclear Stat5a/b status. The prostate organ cultures were performed as described earlier (Ahonen et al., Endocrinology (2002), 143:228-238). Briefly, prostate cancer tissue was cut into approximately 1 mm^3 pieces in a plain culture medium and transferred onto lens papers lying on stainless steel grids in petri dishes. […] Tissue explants were cultured in a medium containing the N6BAP or control compound C5 at indicated concentrations (C5: […]; N6BAP: 5, 10, 25, 50 and 100 μM) 7 days, after which the explants were fixed in formalin and analyzed for Stat5a/b activation and viability of prostate cancer epithelial compartment. Viability of the epithelial cells in the prostate cancer explants at the end of the cultures were scored by counting the viable epithelial cells per explant.

[3] = target: T1, Stat5a (Homo sapiens, UniProt P42229); assay: Stat5a transcriptional activity, β-casein promoter luciferase reporter gene assay in PC-3 cells; set-up: expressed in transfected cells; host or cells: PC-3 (human prostate cancer cell line); conditions: 1 hour pretreatment, 10 nM hPrl for 16 hours
T1 sequence (P42229 1-794): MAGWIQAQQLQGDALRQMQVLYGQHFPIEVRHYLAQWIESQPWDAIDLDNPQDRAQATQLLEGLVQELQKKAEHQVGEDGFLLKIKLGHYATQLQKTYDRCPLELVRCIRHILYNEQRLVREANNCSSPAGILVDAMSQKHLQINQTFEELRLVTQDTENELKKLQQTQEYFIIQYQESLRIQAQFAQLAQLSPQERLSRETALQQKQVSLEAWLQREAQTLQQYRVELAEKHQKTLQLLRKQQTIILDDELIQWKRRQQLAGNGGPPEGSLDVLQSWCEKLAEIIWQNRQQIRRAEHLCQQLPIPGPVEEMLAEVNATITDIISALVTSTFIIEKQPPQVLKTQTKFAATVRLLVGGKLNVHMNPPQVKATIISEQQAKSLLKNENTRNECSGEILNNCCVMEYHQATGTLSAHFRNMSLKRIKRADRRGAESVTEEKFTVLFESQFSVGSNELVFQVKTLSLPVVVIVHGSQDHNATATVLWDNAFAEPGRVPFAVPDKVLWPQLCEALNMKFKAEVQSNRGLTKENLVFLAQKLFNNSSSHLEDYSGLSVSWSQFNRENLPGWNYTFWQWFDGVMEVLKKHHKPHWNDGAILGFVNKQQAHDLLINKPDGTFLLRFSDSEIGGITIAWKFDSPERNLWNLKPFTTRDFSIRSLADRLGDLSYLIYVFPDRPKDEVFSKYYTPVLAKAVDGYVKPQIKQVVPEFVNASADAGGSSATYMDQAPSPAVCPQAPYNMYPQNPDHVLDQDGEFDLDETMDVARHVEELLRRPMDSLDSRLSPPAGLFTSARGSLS
Protocol: Cells of the human prostate cell line PC-3 were plated into 96-well plate at the density of 2×10^5 per well. After 24 hours of plating, cells were transiently co-transfected using FuGENE6 (Roche) with 0.25 μg of each of pStat5a or pStat5b, pPrlR (prolactin receptor) plasmids, 0.5 μg of pBeta-casein-luc and 0.025 μg of pRL-TK (Renilla luciferase) plasmids as an internal control. After another 24 hours of transfection, the cells were starved in serum-free medium for 8 hours, pretreated with N^6-benzyladenosine-5′-monophosphate (“N6BAP”), or one of five control compounds (designated “C3” through “C7”) of similar molecular weight but unrelated chemical structure to N6BAP), for 1 hour, and then stimulated with 10 nM human prolactin (hPrl) in the serum-free medium for additional 16 hours. The lysates were assayed for firefly and Renilla luciferase activities using the Dual-Luciferase reporter assay system (Promega). Three independent experiments were carried out in triplicate. The firefly luciferase activity was normalized to the Renilla luciferase activity of the same sample, and the mean was calculated from the parallels. From the mean values of each independent run, the overall mean and its standard deviation (S.D.) were calculated.

## O=P(O)(O)OC[C@H]1O[C@@H](n2cnc3c(NCc4ccccc4)ncnc32)[C@H](O)[C@@H]1O [N6BAP, N^6-benzyladenosine-5′-monophosphate]
[1]
  binding of Stat5a/b to DNA (EMSA): inhibited binding of Stat5a/b to DNA
[2]
  viability of prostate cancer epithelium in explant organ cultures: induced extensive death of prostate cancer epithelium
[3]
  transcriptional activity of Stat5a on the β-casein gene promoter: inhibited Stat5a and Stat5b transcriptional activity in a concentration-dependent manner; also recorded: effectively blocks the transcriptional activity
